Test results as given in paper PMC8138313, “Identification, Selection and Immune Assessment of Liver Stage CD8 T Cell Epitopes From Plasmodium falciparum” (Frontiers in Immunology, 2021).
Where a SMILES comes first, the peptide text is derived from it.

biological target: HLA A*0101 (Homo sapiens, UniProt P04439, A114D/A174V/A182V/D101N/D185E/E176A/E190D/L180R/Q94H/R68K/S129P/T187R/V100A/V91M/W191G); assay: HLA class I binding assay (cell-free competition, fluorescence polarization)

SMILES | IC50
CC(C)[C@H](NC(=O)[C@@H](NC(=O)[C@@H](N)CC(N)=O)[C@@H](C)O)C(=O)N[C@@H](CCCCN)C(=O)N[C@@H](CS)C(=O)N1CCC[C@H]1C(=O)N[C@@H](CC(N)=O)C(=O)N[C@@H](CC(=O)O)C(=O)N[C@@H](Cc1ccc(O)cc1)C(=O)O (H-NTVKCPNDY-OH) | 282 µM
CSCC[C@H](NC(=O)[C@H](CC(N)=O)NC(=O)[C@H](CC(N)=O)NC(=O)[C@H](CCCNC(=N)N)NC(=O)[C@H](Cc1ccccc1)NC(=O)[C@H](CC(N)=O)NC(=O)[C@H](CC(N)=O)NC(=O)[C@@H](N)CC(N)=O)C(=O)N[C@@H](Cc1ccc(O)cc1)C(=O)O (H-NNNFRNNMY-OH; N-terminus assumed) | > 1000 µM
C[C@@H](O)[C@H](N)C(=O)N[C@@H](CO)C(=O)N[C@@H](CCCCN)C(=O)N[C@@H](CCC(N)=O)C(=O)NCC(=O)N[C@@H](CO)C(=O)N[C@@H](CO)C(=O)N[C@@H](CC(N)=O)C(=O)N[C@@H](CCCCN)C(=O)N[C@@H](Cc1ccc(O)cc1)C(=O)O (H-TSKQGSSNKY-OH; N-terminus assumed) | > 1000 µM
CC[C@H](C)[C@H](NC(=O)[C@H](CC(N)=O)NC(=O)[C@H](CCC(=O)O)NC(=O)[C@@H](NC(=O)[C@H](CC(N)=O)NC(=O)[C@H](CO)NC(=O)[C@H](CO)NC(=O)[C@@H](N)CC(C)C)[C@@H](C)CC)C(=O)N[C@@H](Cc1ccc(O)cc1)C(=O)O (H-LSSNIENIY-OH) | 29.6 µM
NCCCC[C@H](NC(=O)[C@H](CO)NC(=O)CN)C(=O)N[C@@H](CC(N)=O)C(=O)N[C@@H](CC(=O)O)C(=O)N[C@@H](Cc1ccccc1)C(=O)N[C@@H](CCC(N)=O)C(=O)N[C@@H](CCC(N)=O)C(=O)N[C@@H](CCC(N)=O)C(=O)N[C@@H](Cc1ccc(O)cc1)C(=O)O (H-GSKNDFQQQY-OH; N-terminus assumed) | > 1000 µM
CC[C@H](C)[C@H](NC(=O)[C@H](CC(C)C)NC(=O)[C@H](CC(=O)O)NC(=O)[C@H](CC(C)C)NC(=O)[C@H](CCCCN)NC(=O)[C@H](CC(=O)O)NC(=O)[C@H](CO)NC(=O)[C@@H](N)CC(N)=O)C(=O)N[C@@H](Cc1ccc(O)cc1)C(=O)O (H-NSDKLDLIY-OH) | 0.875 µM
CC(C)C[C@H](NC(=O)[C@H](C)NC(=O)[C@H](CO)NC(=O)[C@@H](NC(=O)[C@H](CCCCN)NC(=O)[C@H](CC(=O)O)NC(=O)[C@H](CCCNC(=N)N)NC(=O)[C@@H](N)CS)[C@@H](C)O)C(=O)N[C@@H](Cc1ccc(O)cc1)C(=O)O (H-CRDKTSALY-OH; N-terminus assumed) | > 1000 µM
C[C@H](NC(=O)[C@H](CO)NC(=O)[C@@H](N)CO)C(=O)N[C@@H](CC(N)=O)C(=O)N[C@@H](CC(=O)O)C(=O)N[C@@H](CCC(=O)O)C(=O)N[C@@H](CCC(N)=O)C(=O)N[C@@H](CO)C(=O)N[C@@H](Cc1ccc(O)cc1)C(=O)O (H-SSANDEQSY-OH) | 65 µM
CC[C@H](C)[C@H](NC(=O)[C@@H](N)CC(C)C)C(=O)N[C@@H](CO)C(=O)N[C@@H](CCCNC(=N)N)C(=O)N[C@@H](CC(C)C)C(=O)N[C@H](C(=O)N[C@@H](CC(C)C)C(=O)N[C@@H](CCCCN)C(=O)N[C@@H](Cc1ccc(O)cc1)C(=O)O)[C@@H](C)O (H-LISRLTLKY-OH) | 11.5 µM
CC(C)C[C@H](NC(=O)CNC(=O)[C@@H]1CCCN1C(=O)[C@H](Cc1ccccc1)NC(=O)[C@@H](NC(=O)[C@H](CO)NC(=O)[C@@H](NC(=O)[C@@H](N)Cc1c[nH]cn1)[C@@H](C)O)C(C)C)C(=O)N[C@@H](Cc1ccc(O)cc1)C(=O)O (H-HTSVFPGLY-OH) | 5.65 µM
CC(C)[C@H](NC(=O)[C@H](CC(N)=O)NC(=O)[C@@H]1CCCN1C(=O)[C@H](CO)NC(=O)[C@@H](N)CC(N)=O)C(=O)N[C@@H](CC(N)=O)C(=O)N[C@@H](CCCCN)C(=O)N[C@@H](CCCNC(=N)N)C(=O)N[C@@H](Cc1ccc(O)cc1)C(=O)O (H-NSPNVNKRY-OH; N-terminus assumed) | > 1000 µM
CC(C)[C@H](NC(=O)[C@H](CCC(=O)O)NC(=O)[C@H](Cc1ccccc1)NC(=O)[C@@H](NC(=O)[C@H](CC(=O)O)NC(=O)[C@H](CC(=O)O)NC(=O)[C@H](CCC(=O)O)NC(=O)[C@@H](N)CCCCN)[C@@H](C)O)C(=O)N[C@@H](Cc1ccc(O)cc1)C(=O)O (H-KEDDTFEVY-OH; N-terminus assumed) | > 1000 µM
